Test results from paper PMC9367663 (Journal of Enzyme Inhibition and Medicinal Chemistry, 2022).
“Also recorded” adds a separate entry of the source. Like-named read-outs stand apart in the source and are kept apart here.

Assays:
SARS-CoV-2 PL^Pro = SARS-CoV-2 PL^Pro (Severe acute respiratory syndrome coronavirus 2, UniProt P0DTD1); assay: biochemical; assay type: biochemical
cathepsin L = cathepsin L (Homo sapiens, UniProt P07711); assay: biochemical; assay type: biochemical
in vitro = settings: human
[1] = test system: human lung tissue (HLT) cells
[2] = 1H NMR stability in biologically relevant media; assay type: physicochemical; settings: buffers in D2O (1% DMSO-d6 for a and 1a), t = 0 and 30 min
Protocol: Acetate and HEPES buffers were prepared in D2O. […] Such solutions were further filtered through Minisart® Regenerated Cellulose Syringe Filter (25 mm, 0.2 µm).

[3] = UV–vis stability in biologically relevant media; assay type: physicochemical; settings: 50 mM acetate buffer pH 5.5 (1% DMSO for a and 1a), 0 and 30 min
Protocol: The same buffers as for enzymatic assays were used for UV–vis stability testing (50 mM acetate buffer, pH = 5.5, and 50 mM HEPES buffer, pH = 7.4). Pyrithione a and zinc pyrithione 1a were dissolved in DMSO. Mixtures of a dissolved compound in DMSO (1%) and buffer (99%) were filtered through Minisart® Regenerated Cellulose Syringe Filter (25 mm, 0.2 µm). Ruthenium complex 2a was dissolved directly in buffers. After preparation, the spectra were immediately recorded on UV–vis spectrometer with an additional recording after 30 min.

SARS-CoV-2 viral isolate = assay type: cell-based; settings: 30 µM
[4] = 100 µM ligand, averages of three measurements
[5] = pH 5.5, read-out: IC50 cathepsin L

cathepsin L, sequence (P07711 114-333): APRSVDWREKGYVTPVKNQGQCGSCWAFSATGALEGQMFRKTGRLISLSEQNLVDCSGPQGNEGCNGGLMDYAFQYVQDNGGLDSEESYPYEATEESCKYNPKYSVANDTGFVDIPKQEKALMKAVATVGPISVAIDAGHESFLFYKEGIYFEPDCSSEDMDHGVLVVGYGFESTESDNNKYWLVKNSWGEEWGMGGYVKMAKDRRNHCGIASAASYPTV

For Cc1ccn(O)c(=S)c1 [c], the “vi/v0 at 100 µM, PLPro (relative reaction rate)” value (SARS-CoV-2 PL^Pro; [4]) was 0.60 and the “vi/v0 at 100 µM, Cathepsin L (relative reaction rate)” value (cathepsin L; [4]) was 1.04.
With Zn-(4Me-pth) complex [1c] the IC50 (SARS-CoV-2 PL^Pro; pH 7.4, read-out: IC50 PL^Pro) was 540 ± 250 nM and the IC50 (cathepsin L; [5]) was 410 ± 80 nM.
Zn-(6Me-pth) complex [1e] showed an IC50 (SARS-CoV-2 PL^Pro; pH 7.4, read-out: IC50 PL^Pro) of 260 ± 180 nM and an IC50 (cathepsin L; [5]) of 240 ± 50 nM.
In the case of On1c(=S)ccc2ccccc21 [g], the “vi/v0 at 100 µM, PLPro (relative reaction rate)” value (SARS-CoV-2 PL^Pro; [4]) is reported as 0.28 and the “vi/v0 at 100 µM, Cathepsin L (relative reaction rate)” value (cathepsin L; [4]) is reported as 0.53.
Zn-(5Me-pth) complex [1d] showed an IC50 (SARS-CoV-2 PL^Pro; pH 7.4, read-out: IC50 PL^Pro) of 220 ± 80 nM and an IC50 (cathepsin L; [5]) of 440 ± 120 nM.
In the case of Cc1cccc(=S)n1O [e], the “vi/v0 at 100 µM, PLPro (relative reaction rate)” value (SARS-CoV-2 PL^Pro) is reported as 0.82 and the “vi/v0 at 100 µM, Cathepsin L (relative reaction rate)” value (cathepsin L; [4]) is reported as 1.15.
For On1ccccc1=S [a, 1-hydroxy-2(1H)-pyridinethione], the CC50 (in vitro) was over 100000 nM, the viability (in vitro) was 51.9 to 55.5% and the cell survival [1] was 72.91%. The IC50 (SARS-CoV-2 PL^Pro) was over 500000 nM, the “vi/v0 at 100 µM, PLPro (relative reaction rate)” value (SARS-CoV-2 PL^Pro) was 0.88 and the “1H NMR stability in acetate and HEPES buffers” value [2] was “no structural changes”. For the same compound, the “UV–vis stability in acetate buffer” value [3] was “remain stable”, the “inhibition of SARS-CoV-2 replication” value (SARS-CoV-2 viral isolate) was “no effect; also recorded: did not inhibit” and the IC50 (cathepsin L) was over 500000 nM. The “vi/v0 at 100 µM, Cathepsin L (relative reaction rate)” value (cathepsin L) was 1.09.
With On1ccc2ccccc2c1=S [f, N-hydroxyisoquinoline-1-thione] the “vi/v0 at 100 µM, PLPro (relative reaction rate)” value (SARS-CoV-2 PL^Pro; [4]) was 0.66 and the “vi/v0 at 100 µM, Cathepsin L (relative reaction rate)” value (cathepsin L; [4]) was 0.65.
For Cc1cccn(O)c1=S [b], the “vi/v0 at 100 µM, PLPro (relative reaction rate)” value (SARS-CoV-2 PL^Pro) was 0.50 and the “vi/v0 at 100 µM, Cathepsin L (relative reaction rate)” value (cathepsin L; [4]) was 1.05.
In the case of “Zn-(N-hydroxyisoquinoline-1-thione) complex [1f]”, the “extent of PL^Pro inhibition (in words)” value (SARS-CoV-2 PL^Pro) is reported as “cannot fully inhibit the enzyme” and the IC50 (cathepsin L; 50 mM acetate buffer pH 5.5, 2 µM Z-LR-AMC, 5 µM DTT, 25 °C, mean ± S.E.M. (N = 3), read-out: IC50 cathepsin L) is reported as 140 ± 50 nM.
In the case of COc1cccn(O)c1=S [h], the “vi/v0 at 100 µM, PLPro (relative reaction rate)” value (SARS-CoV-2 PL^Pro; [4]) is reported as 0.60 and the “vi/v0 at 100 µM, Cathepsin L (relative reaction rate)” value (cathepsin L; [4]) is reported as 1.17.
With Cc1ccc(=S)n(O)c1 [d] the “vi/v0 at 100 µM, PLPro (relative reaction rate)” value (SARS-CoV-2 PL^Pro) was 0.77 and the “vi/v0 at 100 µM, Cathepsin L (relative reaction rate)” value (cathepsin L; [4]) was 1.01.
